≈ marks a conversion by molar mass, not a printed value.
What was measured:
Staphylococcus aureus [1] = assay: Antibacterial activity against Staphylococcus aureus; type: functional
Staphylococcus aureus [2] = assay: Antibacterial activity against methicillin-resistant Staphylococcus aureus; type: functional
Staphylococcus aureus [3] = assay: Antibacterial activity against vancomycin-resistant Staphylococcus aureus; type: functional
Streptococcus pneumoniae [4] = assay: Antibacterial activity against Streptococcus pneumoniae assessed as reduction in bacterial growth incubated for 16 to 20 hrs by broth microdilution method; type: functional; details: time 16-20 hrs
Bacillus anthracis = assay: Antibacterial activity against Bacillus anthracis 9131 measured after 24 hrs by broth microdilution method; type: functional
[5] = Inhibition of Escherichia coli RNA polymerase/sigma factor 70 (unknown origin) protein-protein interaction incubated for 30 mins by ELISA
Streptococcus pneumoniae [6] = assay: Antibacterial activity against Streptococcus pneumoniae CIP103566 measured after 24 hrs by broth microdilution method; type: functional
Bacteroides sp. = assay: Antibacterial activity against Bacteroides sp. measured after 24 hrs by broth microdilution method; type: functional
Bacteria = assay: Inhibition of bacterial RNA polymerase holoenzyme formation assessed as inhibition of interaction between beta subunit CH domain and sigma factor at 500 uM relative to control
Bacillus subtilis [7] = assay: Antibacterial activity against Bacillus subtilis EU168 measured after 18 hrs; type: functional
Staphylococcus aureus [8] = assay: Antibacterial activity against community-acquired methicillin-resistant Staphylococcus aureus USA300 measured after 18 hrs; type: functional
Moraxella catarrhalis = assay: Antibacterial activity against Moraxella catarrhalis; type: functional
Neisseria gonorrhoeae = assay: Antibacterial activity against Neisseria gonorrhoeae; type: functional
[9] = Inhibition of poly(C) dependent Escherichia coli DW319 Rho ATPase activity
Escherichia coli = assay: Antibacterial activity against Escherichia coli assessed as inhibition of bacterial growth at 200 uM incubated for 10 sec under shaking condition relative to control; type: functional; details: 10 s
Bacillus subtilis [10] = assay: Antibacterial activity against Bacillus subtilis assessed as inhibition of bacterial growth at 200 uM incubated for 10 sec under shaking condition relative to control; type: functional; details: 10 s
[11] = Inhibition of NusB-NusE (unknown origin) protein protein interaction; parameters: species or system Bacteria
[12] = Binding affinity to NusB (unknown origin) assessed as dissociation constant; parameters: species or system Bacteria
[13] = Inhibition of Bacillus subtilis N-terminal SmBiT NanoLuc/C-terminal LgBiT NanoLuc fused full-length SigA tagged RNA polymerase beta subunit CH-domain (220 to 315 residues)/sigma factor (unknown origin) protein-protein interaction by split luciferase assay
[14] = Inhibition of ribo(C)10 stimulated Escherichia coli AR120 Rho ATPase activity preincubated for 2 mins in presence of ribo(C)10 followed by ATP addition and measured for 90 sec by [gamma-32P]ATP based liquid scintillation counting method
[15] = Inhibition of ribo(C)10 stimulated Escherichia coli AR120 Rho ATPase activity preincubated for 2 mins in absence of ribo(C)10 followed by ATP addition and measured for 90 sec by [gamma-32P]ATP based liquid scintillation counting method

Q: Which MIC (Staphylococcus aureus [1]) does the source give for `O=[N+]([O-])c1ccc(O)c(/C=N/c2cccc(Cl)c2)c1` here?
A: The MIC was 2 µg/mL (≈ 7.23 µM).

Q: And the MIC (Staphylococcus aureus [2])?
A: The MIC was 0.25 µg/mL (≈ 0.904 µM).

Q: And the MIC (Staphylococcus aureus [3])?
A: Its MIC is 0.25 µg/mL (≈ 0.904 µM).

Q: Which MIC (Streptococcus pneumoniae [4]) does the source give for `O=C(O)c1ccccc1C(=O)c1ccc(Sc2ccc(Cl)c(Cl)c2)c([N+](=O)[O-])c1` here?
A: Its MIC is 8 µg/mL (≈ 17.8 µM).

Q: Which MIC (Bacillus anthracis) does the source give for `C=CCN1C(=O)/C(=C\c2ccc(-c3cccc(C(=O)O)c3)o2)SC1=S` here?
A: Its MIC is 0.1 µg/mL (≈ 0.269 µM).

Q: What about the IC50 [5] of the same compound?
A: Its IC50 is 2 µM.

Q: What about the MIC (Streptococcus pneumoniae [6]) of the same compound?
A: The MIC was 2 µg/mL (≈ 5.38 µM).

Q: And the MIC (Bacteroides sp.)?
A: The MIC was 1 µg/mL (≈ 2.69 µM).

Q: Which results are given for `C[C@]12CC[C@@H](O)CC1CCC1C2CC[C@](C)(C(=O)O)C1/C=C1/Nc2ccccc2C1=O` (some centres undefined)?
A: inhibition (Bacteria): 80%; MIC (Bacillus subtilis [7]): ≤ 50 µM; MIC (Staphylococcus aureus [8]): ~100 µM (≈ 42.4 µg/mL)

Q: Which IC50 [5] does the source give for `CN1C(=O)/C(=C\c2ccc(-c3cccc(C(=O)O)c3)o2)SC1=S` here?
A: Its IC50 is 3 µM.

Q: With `O=C1N(Cc2ccccc2)CCC1(CCN1CCC(Nc2nc3ccccc3n2Cc2ccc(F)cc2)CC1)Cc1ccccc1` (centres undefined) as the compound, how does the MIC (Moraxella catarrhalis) read?
A: Its MIC is 2.5 µM (≈ 1.54 µg/mL).

Q: And the MIC (Neisseria gonorrhoeae)?
A: Its MIC is 2.5 µM (≈ 1.54 µg/mL).

Q: What about the IC50 [9] of the same compound?
A: Its IC50 is 25 µM.

Q: Which MIC (Staphylococcus aureus [1]) does the source give for `O=[N+]([O-])c1ccc(O)c(CNc2ccccc2C#Cc2ccccc2)c1` here?
A: The MIC was 0.25 µg/mL (≈ 0.726 µM).

Q: What about the MIC (Staphylococcus aureus [2]) of the same compound?
A: The MIC was 0.25 µg/mL (≈ 0.726 µM).

Q: And the MIC (Staphylococcus aureus [3])?
A: Its MIC is 0.25 µg/mL (≈ 0.726 µM).

Q: Which inhibition at 200 µM (Escherichia coli) does the source give for `N=C(N)N/N=C/c1ccc(OC/C=C\COc2ccc(/C=N/NC(=N)N)cc2)cc1` here?
A: Its inhibition at 200 µM is 100%.

Q: What about the inhibition at 200 µM (Bacillus subtilis [10]) of the same compound?
A: The inhibition at 200 µM was 100%.

Q: Which MIC (Staphylococcus aureus [1]) does the source give for `COc1cccc(/C=C/c2cc(O)ccc2[N+](=O)[O-])c1` here?
A: Its MIC is 2 µg/mL (≈ 7.37 µM).

Q: And the MIC (Staphylococcus aureus [2])?
A: The MIC was 0.25 µg/mL (≈ 0.922 µM).

Q: What about the MIC (Staphylococcus aureus [3]) of the same compound?
A: Its MIC is 0.25 µg/mL (≈ 0.922 µM).

Q: Which IC50 [11] does the source give for `COc1ccc(-c2cc(-c3ccc(OC)c(OC)c3)nc(NS(=O)(=O)c3ccc(NC(C)=O)cc3)n2)c(OC)c1` here?
A: Its IC50 is 6.1 µM.

Q: Which IC50 [11] does the source give for `CCNC(=O)Nc1ccc(OCCCCOc2ccc(NC(=O)NCC)cc2)cc1` here?
A: The IC50 was 19.8 µM.

Q: With `C#Cc1cccc(/N=C/c2cc([N+](=O)[O-])ccc2O)c1` as the compound, how does the MIC (Staphylococcus aureus [1]) read?
A: Its MIC is 8 µg/mL (≈ 30 µM).

Q: And the Kd [12]?
A: The Kd was about 1.5 µM.

Q: What about the IC50 [11] of the same compound?
A: The IC50 was about 35 µM.

Q: With `Nc1ccccc1Sc1ccc(C(=O)c2ccccc2C(=O)O)cc1[N+](=O)[O-]` as the compound, how does the MIC (Streptococcus pneumoniae [4]) read?
A: The MIC was 256 µg/mL (≈ 649 µM).

Q: And the inhibition (Bacteria)?
A: The inhibition was 80%.

Q: And the IC50 [13]?
A: The IC50 was 6.4 µM.

Q: For `CC(C)(C)c1ccccc1NCc1cc([N+](=O)[O-])ccc1O`, which MIC (Staphylococcus aureus [1]) is on record?
A: The MIC was 1 µg/mL (≈ 3.33 µM).

Q: And the MIC (Staphylococcus aureus [2])?
A: The MIC was 0.25 µg/mL (≈ 0.832 µM).

Q: And the MIC (Staphylococcus aureus [3])?
A: The MIC was 0.25 µg/mL (≈ 0.832 µM).

Q: For `C=CCN1C(=O)/C(=C/c2cc(C)n(-c3cccc(C(=O)O)c3)c2C)SC1=S`, which IC50 [5] is on record?
A: Its IC50 is 1.8 µM.

Q: For `C#Cc1cccc(NCc2cc([N+](=O)[O-])cc(Br)c2O)c1`, which MIC (Staphylococcus aureus [2]) is on record?
A: Its MIC is 0.25 µg/mL (≈ 0.72 µM).

Q: And the MIC (Staphylococcus aureus [3])?
A: The MIC was 0.25 µg/mL (≈ 0.72 µM).

Q: For `C=C1CCO[C@]2([C@@H](O)[C@@](C)(O)CO)NC(=O)[C@@]1(O)NC2=O` [BICOZAMYCIN], which Ki [14] is on record?
A: Its Ki is 2.8 µM.

Q: What about the Ki [15] of the same compound?
A: Its Ki is 26 µM.

Source: ChEMBL document CHEMBL5532700, “Inhibition of bacterial RNA polymerase function and protein-protein interactions: a promising approach for next-generation antibacterial therapeutics” (RSC Med Chem, 2024)
